Data as given in PubChem BioAssay (NCI).
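Results reflect a 48-hour exposure of cells in 96-well plates to compound at five concentrations. GI50 is the concentration that inhibits growth by half. The concentration for full growth arrest is given as TGI.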

Key:
Test in all cases: inhibition of tumour cell growth, NCI panel, 48 h
[1] = system: 786-0 renal
[2] = system: M14 melanoma
[3] = system: NCI-H460 lung
[4] = system: OVCAR-3 ovarian
[5] = system: RPMI-8226 leukemia
[6] = system: U251 CNS
[7] = system: UO-31 renal
[8] = system: SR leukemia
[9] = system: A498 renal
[10] = system: HS 578T breast

Row | Compound | TGI [1] [µM] | TGI [2] [µM] | TGI [3] [µM] | TGI [4] [µM] | TGI [5] [µM] | TGI [6] [µM] | TGI [7] [µM] | TGI [8] [µM] | TGI [9] [µM] | GI50 [1] [µM] | GI50 [9] [µM] | GI50 [10] [µM] | TGI [10] [µM] | GI50 [2] [µM] | GI50 [3] [µM] | GI50 [4] [µM] | GI50 [5] [µM] | GI50 [6] [µM] | GI50 [7] [µM] | GI50 [8] [µM]
1 | CCN(CC)C(=O)C/C(C)=N/NC(=O)c1ccncc1 | > 100 | > 100 | > 100 | > 100 | > 100 | > 100 | > 100 | – | – | – | – | – | – | – | – | – | – | – | – | –
2 | COc1ccc(C(=O)O)c(Cc2cccc3ccccc23)c1 | > 100 | > 100 | > 100 | > 100 | – | > 100 | > 100 | > 100 | – | – | – | – | – | – | – | – | – | – | – | –
3 | Cc1cccc(N2C(=O)C(Cl)=C(Cl)C2=O)c1 | > 87.5 | > 100 | > 100 | > 80.5 | > 78.9 | > 100 | > 100 | 79.7 | > 100 | – | – | – | – | – | – | – | – | – | – | –
4 | COC(=O)C1=C(c2ccc3c(c2)OCO3)O[C@H](c2ccc3c(c2)OCO3)[C@H]1COC(C)=O | > 100 | > 100 | > 100 | > 100 | > 100 | > 100 | > 100 | > 100 | 59.6 | – | – | – | – | – | – | – | – | – | – | –
5 | Cc1cc(NS(=O)(=O)c2ccc(NC(=O)c3cccc4c(=O)c5ccccc5[nH]c34)cc2)no1 | 38.2 | – | > 100 | 95.5 | > 100 | > 100 | 72.8 | 80.8 | 79 | – | – | – | – | – | – | – | – | – | – | –
6 | O=S(O)CCCCSSCCCCSSCCCCS(=O)O | > 100 | 26.5 | > 100 | > 100 | – | > 100 | > 100 | – | > 100 | – | – | – | – | – | – | – | – | – | – | –
7 | CCOC(=O)NC(=O)c1cn(CCCOC(=O)NCCCCCCNC(=O)OCCCn2c(=O)c(C(=O)NC(=O)OCC)cn(C)c2=O)c(=O)n(C)c1=O | > 100 | > 100 | > 100 | > 100 | > 100 | > 100 | > 100 | – | > 100 | – | – | – | – | – | – | – | – | – | – | –
8 | COc1cccc(N=Cc2c3ccccc3c(=O)n3c2oc2ccccc23)c1 | > 100 | > 100 | > 100 | 45.3 | 42.6 | > 100 | > 100 | – | 61.4 | 14 | 17.2 | 34.9 | > 100 | 12.2 | 11.3 | 4.44 | 6.54 | 7.67 | 42.7 | –
9 | C#CC[C@]12CC(=O)CC[C@H]1CC(=O)C2 | > 100 | > 100 | > 100 | > 100 | > 100 | > 100 | > 100 | > 100 | > 100 | – | – | – | – | – | – | – | – | – | – | –
10 | CCOC(=O)[C@H]1Nc2ccc(C)cc2C2c3ccccc3CC21 (stereo partly drawn) | > 100 | > 100 | > 100 | > 100 | > 100 | > 100 | > 100 | > 100 | > 100 | – | – | – | – | – | – | – | – | – | – | –
11 | O=C(NC1CCCCCC1)C1C(=O)N(C2CCCCCC2)C(=O)/C1=N\O (stereo not drawn) | > 100 | > 100 | > 100 | 37.6 | 83.3 | 34.9 | 97.5 | 54 | 80.4 | – | – | – | – | – | – | – | – | – | – | –
12 | CC#CC(=O)Nc1ccccc1CC(c1c[nH]c2ccccc12)c1c[nH]c2ccccc12 | 43 | 29.7 | – | 49.6 | 58.1 | – | 25.4 | – | – | – | – | – | – | – | – | – | – | – | – | –
13 | CN(C)C(=S)/N=c1\ss/c(=N\C(=S)N(C)C)n1-c1ccc2c(c1)OCO2 | > 100 | > 100 | – | > 100 | – | > 100 | > 100 | > 100 | > 100 | – | – | – | – | – | – | – | – | – | – | –
14 | N#Cc1cnsc1 | > 100 | > 100 | > 100 | > 100 | > 100 | > 100 | > 100 | > 100 | > 100 | – | – | – | – | – | – | – | – | – | – | –
15 | CCCCNC(=O)NS(=O)(=O)c1ccc(N2N=C(c3ccc(C)cc3C)CC2c2ccc(N(C)C)cc2)cc1 (stereo not drawn) | > 100 | > 100 | 15.9 | 5.72 | 9.66 | 27.6 | > 100 | – | 25.9 | 5.45 | 3.9 | 3.95 | > 100 | 4.06 | 3.33 | 2.5 | 2.99 | 3.59 | 4.57 | –
16 | O=C(/C=C/c1ccccc1Cl)c1ccccc1Cl | 28.8 | 47.2 | 36 | 33.9 | 44.7 | 30.8 | 34.3 | – | > 100 | – | – | – | – | – | – | – | – | – | – | –
17 | CC(=O)SCCC1c2[nH]c3ccccc3c2CCN1O (stereo not drawn) | > 100 | > 100 | > 100 | > 100 | > 100 | > 100 | > 100 | – | – | – | – | – | – | – | – | – | – | – | – | –
18 | Cc1ccc(N=NC(C(=O)c2ccccc2)C(=O)c2ccccc2)cc1 | 40 | 34.5 | – | > 100 | 67.4 | > 100 | 44.4 | – | > 100 | – | – | – | – | – | – | – | – | – | – | –
19 | CC(C)=[CH][Sb]([Br])([CH]=C(C)C)([CH]=C(C)C)[CH]=C(C)C | > 100 | 37.8 | 54.4 | 59.8 | 38.4 | 79.3 | > 100 | > 100 | > 100 | 34.4 | 41 | – | – | 10.1 | 16.4 | 2.44 | 0.781 | 12.2 | 35.4 | 10.9
20 | N#CCCN(c1ccc(/C=C2\N=C(c3ccc(Cl)cc3)OC2=O)cc1)S(=O)(=O)c1ccccc1 | > 100 | > 100 | > 100 | > 100 | > 100 | > 100 | > 100 | > 100 | > 100 | – | – | – | – | – | – | – | – | – | – | –
21 | COc1cc2c3c(n(CCCCl)c(=O)c2cc1OC)-c1ccccc1C3=O | > 100 | > 100 | > 100 | 54.8 | > 100 | > 100 | > 100 | – | – | 12.3 | – | 23.5 | > 100 | 5.96 | 3.66 | 10.6 | 25.4 | 11.9 | > 100 | –
22 | CCCCCCCCCCCCCCCCOP(=O)(O)Oc1ccc(/C=C\c2ccc(OP(=O)(O)OCCCCCCCCCCCCCCCC)cc2)cc1 | > 100 | > 100 | > 100 | > 100 | 80 | > 100 | > 100 | 47.1 | > 100 | – | – | – | – | – | – | – | – | – | – | –
